Test results: patent publication US20260226068A1, “IMIDAZOTRIAZINE IL-17A MODULATORS AND USES THEREOF” (DICE ALPHA, INC., priority 2023, published 2026)

How the values were obtained:
IL-17A/A = target: T1, IL-17A/A (Homo sapiens, UniProt Q16552); assay: IL-17A/A HEK-Blue cell assay (SEAP reporter); type: cell-based; details: HEK-Blue IL-17A reporter cells, IL17A/A 5 ng/mL, 20 hours, SEAP read at A630; read-out: HEK-Blue IL17AA (IC50 for IL-17A/A inhibition)
T1 construct: purchased Genscript Z03228
T1 sequence (Q16552 24-155): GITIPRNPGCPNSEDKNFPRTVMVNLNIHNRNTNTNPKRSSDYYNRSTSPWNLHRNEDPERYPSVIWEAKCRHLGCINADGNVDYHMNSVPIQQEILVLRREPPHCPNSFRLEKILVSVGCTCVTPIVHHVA

IL-17A/F = target: T2, IL-17A/F (Homo sapiens, UniProt Q16552+Q96PD4); assay: IL-17A/F HEK-Blue cell assay (SEAP reporter); type: cell-based; details: HEK-Blue IL-17A reporter cells, IL17A/F 5 ng/mL, 20 hours, SEAP read at A630; read-out: HEK-Blue IL17AF (IC50 for IL-17A/F inhibition)
T2 construct: purchased R&D Systems
T2 sequence (Q16552 24-155): T1 sequence (Q16552 24-155)
T2 sequence (Q96PD4 31-163): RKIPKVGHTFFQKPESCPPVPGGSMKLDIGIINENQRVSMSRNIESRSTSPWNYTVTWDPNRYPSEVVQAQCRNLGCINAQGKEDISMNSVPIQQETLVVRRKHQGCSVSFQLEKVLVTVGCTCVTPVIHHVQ

[1] = Mouse oral bioavailability; type: in vivo; details: C57BL/6J mice, PO 10 mg/kg vs IV 1 mg/kg, plasma AUC, read-out: % F (Mouse), oral bioavailability
Protocol: The test compound is administered to C57BL/6J mice intravenously (IV) at 1 mg/kg or orally (PO) at 10 mg/kg using vehicles composed of 10% DMA, 70% Polyethylene glycol 400, and 20% purified water; or 10% DMA, 50% Polyethylene glycol 400, and 40% purified water. Serial blood collections occur at 0.08, 0.25, 0.5, 1, 2, 4, 8 and 24 h post IV bolus dose administration, and 0.25, 0.5, 1, 2, 4, 8 and 24 h post oral dose administration. Blood samples are treated with EDTA anticoagulant. Plasma is isolated by centrifugation and stored at −70° C. until analysis by LC-MS/MS. Test article concentration is determined in plasma and uploaded into the Phoenix WinNonlin system where noncompartmental analysis is used to calculate Area Under the Curve (AUC) for both IV and PO arms. Bioavailability (% F) is calculated via the following equation,
% F=(AUCPO×DoseIV)/(AUCIV×DosePO)×100

Row | IC50 (IL-17A/A) | IC50 (IL-17A/F) | bioavailability [1] | SMILES
1 | < 100 nM | 100 to 1000 nM | 40% | CCn1nccc1C(=O)N[C@H](c1cn2nc(C[C@H]3C[C@@H](C(F)(F)F)CNC3=O)c(C3CCCOC3)nc2n1)[C@@H]1CCCC(F)(F)C1 (single isomer, unassigned) [Compound 69]
2 | < 100 nM | < 100 nM | 45% | CCn1nccc1C(=O)N[C@H](c1cn2nc(C[C@H]3C[C@@H](C(F)(F)F)CNC3=O)c(C3CCCOC3)nc2n1)[C@H]1CCCC(F)(F)C1 (single isomer, unassigned) [Compound 70]
3 | < 100 nM | < 100 nM | 51% | CCn1nccc1C(=O)N[C@H](c1cn2nc(CC3C[C@@H](C(F)(F)F)CNC3=O)c(N3CCO[C@H](C)C3)nc2n1)[C@@H]1CCCC(F)(F)C1 (single isomer, unassigned) [Compound 122]
4 | < 100 nM | 100 to 1000 nM | 27% | CCn1nccc1C(=O)N[C@H](c1cn2nc(C[C@H]3C[C@@H](C(F)(F)F)CNC3=O)c(C3CCOC3)nc2n1)[C@H]1CCCC(F)(F)C1 (single isomer, unassigned) [Compound 204]
5 | < 100 nM | > 1000 nM | 87% | O=C(N[C@H](c1cn2nc(CC3C[C@@H](C(F)(F)F)CNC3=O)c(N3CCOCC3)nc2n1)C1CCC(F)(F)CC1)c1nonc1C1CC1 (some centres unmarked) [Compound 56]
6 | < 100 nM | 100 to 1000 nM | 69% | CCn1nccc1C(=O)N[C@H](c1cn2nc(C[C@H]3C[C@@H](C(F)(F)F)CNC3=O)c(C3CCOCC3)nc2n1)C1CCC(F)(F)CC1 [Compound 88, N-((1S)-(4,4-difluorocyclohexyl)(2-(((3R,5R)-2-oxo-5-(trifluoromethyl)piperidin-3-yl)methyl)-3-(tetrahydro-2H-pyran-4-yl)imidazo[1,2-b][1,2,4]triazin-6-yl)methyl)-1-ethyl-1H-pyrazole-5-carboxamide]
7 | < 100 nM | > 1000 nM | 91% | Cc1nonc1C(=O)N[C@H](c1cn2nc(C[C@H]3C[C@@H](C(F)(F)F)CNC3=O)c(C3CCOCC3)nc2n1)C1CCC(F)(F)CC1 [Compound 148, N-((1S)-(4,4-difluorocyclohexyl)(2-(((3R,5R)-2-oxo-5-(trifluoromethyl)piperidin-3-yl)methyl)-3-(tetrahydro-2H-pyran-4-yl)imidazo[1,2-b][1,2,4]triazin-6-yl)methyl)-4-methyl-1,2,5-oxadiazole-3-carboxamide]
8 | < 100 nM | 100 to 1000 nM | 43% | CCn1nccc1C(=O)N[C@H](c1cn2nc(C[C@H]3C[C@@H](C(F)(F)F)CNC3=O)c(C3CC4CCC(C3)O4)nc2n1)C1CCC(F)(F)CC1 (stereo partly drawn) [Compound 153, N-((1S)-(3-(8-oxabicyclo[3.2.1]octan-3-yl)-2-(((3R,5R)-2-oxo-5-(trifluoromethyl)piperidin-3-yl)methyl)imidazo[1,2-b][1,2,4]triazin-6-yl)(4,4-difluorocyclohexyl)methyl)-1-ethyl-1H-pyrazole-5-carboxamide]
9 | < 100 nM | > 1000 nM | 83% | CC(C)n1ncnc1C(=O)N[C@H](c1cn2nc(C[C@H]3C[C@@H](C(F)(F)F)CNC3=O)c(C3CCOCC3)nc2n1)C1CCC(F)(F)CC1 [Compound 229]
10 | 100 to 1000 nM | > 1000 nM | – | CCn1nccc1C(=O)N[C@H](c1cn2nc(C[C@H]3C(=O)NC[C@H]4C[C@H]43)c(C3CCOCC3)nc2n1)C1CCC(F)(F)CC1 [Compound 429]
11 | < 100 nM | 100 to 1000 nM | – | O=C(N[C@H](c1cn2nc(C[C@H]3C[C@@H](C(F)(F)F)CNC3=O)c(C3CCOCC3)nc2n1)C1CCC(F)(F)CC1)c1ccnn1CCN1CCCC1C(F)(F)F (stereo partly drawn) [Compound 430, N—((S)-(4,4-difluorocyclohexyl)(2-(((3R,5R)-2-oxo-5-(trifluoromethyl)piperidin-3-yl)methyl)-3-(tetrahydro-2H-pyran-4-yl)imidazo[1,2-b][1,2,4]triazin-6-yl)methyl)-1-(2-(2-(trifluoromethyl)pyrrolidin-1-yl)ethyl)-1H-pyrazole-5-carboxamide]
12 | < 100 nM | 100 to 1000 nM | – | CCn1nccc1C(=O)N[C@H](c1cn2nc(C[C@H]3C[C@@H](C(F)(F)F)CNC3=O)c(N3CCN(C4COC4)CC3)nc2n1)C1CCC(F)(F)CC1 [Compound 433, N—((S)-(4,4-difluorocyclohexyl)(3-(4-(oxetan-3-yl)piperazin-1-yl)-2-(((3R,5R)-2-oxo-5-(trifluoromethyl)piperidin-3-yl)methyl)imidazo[1,2-b][1,2,4]triazin-6-yl)methyl)-1-ethyl-1H-pyrazole-5-carboxamide]
13 | 100 to 1000 nM | > 1000 nM | – | CCn1nccc1C(=O)N[C@H](c1cn2nc(CN3C[C@@H](C(F)(F)F)NC3=O)c(C3CCOCC3)nc2n1)C1CCC(F)(F)CC1 [Compound 434]
14 | 100 to 1000 nM | > 1000 nM | – | CCn1nccc1C(=O)N[C@H](c1cn2nc(CN3CC(F)(F)CNC3=O)c(C3CCOCC3)nc2n1)C1CCC(F)(F)CC1 [Compound 435]
15 | 100 to 1000 nM | > 1000 nM | – | CCn1nccc1C(=O)N[C@H](c1cn2nc(CN3C[C@@H](C(F)(F)F)CNC3=O)c(C3CCOCC3)nc2n1)C1CCC(F)(F)CC1 [Compound 436]
16 | 100 to 1000 nM | > 1000 nM | – | CCn1nccc1C(=O)N[C@H](c1cn2nc(CN3C[C@H](C(F)(F)F)CNC3=O)c(C3CCOCC3)nc2n1)C1CCC(F)(F)CC1 [Compound 437]
